Results as given in patent US20150246938A1, “NOVEL OLEFIN DERIVATIVE” (SHIONOGI & CO., LTD., priority 2011, published 2015).

Target: T1, recombinant human ACC2 (Homo sapiens, UniProt O00763)
T1 construct: a cDNA encoding human ACC2 (27-2458) was cloned from human kidney cDNA library (Clontech); His-tag (N); made in house; host or cells: Sf-9 insect cells (Bac-to-Bac baculovirus)
Assay: Measurement of inhibitory activity on human ACC2 (MALDI-TOF MS, acetyl CoA to malonyl CoA conversion)
Format: biochemical
Conditions: not given

T1 sequence (O00763 27-2458): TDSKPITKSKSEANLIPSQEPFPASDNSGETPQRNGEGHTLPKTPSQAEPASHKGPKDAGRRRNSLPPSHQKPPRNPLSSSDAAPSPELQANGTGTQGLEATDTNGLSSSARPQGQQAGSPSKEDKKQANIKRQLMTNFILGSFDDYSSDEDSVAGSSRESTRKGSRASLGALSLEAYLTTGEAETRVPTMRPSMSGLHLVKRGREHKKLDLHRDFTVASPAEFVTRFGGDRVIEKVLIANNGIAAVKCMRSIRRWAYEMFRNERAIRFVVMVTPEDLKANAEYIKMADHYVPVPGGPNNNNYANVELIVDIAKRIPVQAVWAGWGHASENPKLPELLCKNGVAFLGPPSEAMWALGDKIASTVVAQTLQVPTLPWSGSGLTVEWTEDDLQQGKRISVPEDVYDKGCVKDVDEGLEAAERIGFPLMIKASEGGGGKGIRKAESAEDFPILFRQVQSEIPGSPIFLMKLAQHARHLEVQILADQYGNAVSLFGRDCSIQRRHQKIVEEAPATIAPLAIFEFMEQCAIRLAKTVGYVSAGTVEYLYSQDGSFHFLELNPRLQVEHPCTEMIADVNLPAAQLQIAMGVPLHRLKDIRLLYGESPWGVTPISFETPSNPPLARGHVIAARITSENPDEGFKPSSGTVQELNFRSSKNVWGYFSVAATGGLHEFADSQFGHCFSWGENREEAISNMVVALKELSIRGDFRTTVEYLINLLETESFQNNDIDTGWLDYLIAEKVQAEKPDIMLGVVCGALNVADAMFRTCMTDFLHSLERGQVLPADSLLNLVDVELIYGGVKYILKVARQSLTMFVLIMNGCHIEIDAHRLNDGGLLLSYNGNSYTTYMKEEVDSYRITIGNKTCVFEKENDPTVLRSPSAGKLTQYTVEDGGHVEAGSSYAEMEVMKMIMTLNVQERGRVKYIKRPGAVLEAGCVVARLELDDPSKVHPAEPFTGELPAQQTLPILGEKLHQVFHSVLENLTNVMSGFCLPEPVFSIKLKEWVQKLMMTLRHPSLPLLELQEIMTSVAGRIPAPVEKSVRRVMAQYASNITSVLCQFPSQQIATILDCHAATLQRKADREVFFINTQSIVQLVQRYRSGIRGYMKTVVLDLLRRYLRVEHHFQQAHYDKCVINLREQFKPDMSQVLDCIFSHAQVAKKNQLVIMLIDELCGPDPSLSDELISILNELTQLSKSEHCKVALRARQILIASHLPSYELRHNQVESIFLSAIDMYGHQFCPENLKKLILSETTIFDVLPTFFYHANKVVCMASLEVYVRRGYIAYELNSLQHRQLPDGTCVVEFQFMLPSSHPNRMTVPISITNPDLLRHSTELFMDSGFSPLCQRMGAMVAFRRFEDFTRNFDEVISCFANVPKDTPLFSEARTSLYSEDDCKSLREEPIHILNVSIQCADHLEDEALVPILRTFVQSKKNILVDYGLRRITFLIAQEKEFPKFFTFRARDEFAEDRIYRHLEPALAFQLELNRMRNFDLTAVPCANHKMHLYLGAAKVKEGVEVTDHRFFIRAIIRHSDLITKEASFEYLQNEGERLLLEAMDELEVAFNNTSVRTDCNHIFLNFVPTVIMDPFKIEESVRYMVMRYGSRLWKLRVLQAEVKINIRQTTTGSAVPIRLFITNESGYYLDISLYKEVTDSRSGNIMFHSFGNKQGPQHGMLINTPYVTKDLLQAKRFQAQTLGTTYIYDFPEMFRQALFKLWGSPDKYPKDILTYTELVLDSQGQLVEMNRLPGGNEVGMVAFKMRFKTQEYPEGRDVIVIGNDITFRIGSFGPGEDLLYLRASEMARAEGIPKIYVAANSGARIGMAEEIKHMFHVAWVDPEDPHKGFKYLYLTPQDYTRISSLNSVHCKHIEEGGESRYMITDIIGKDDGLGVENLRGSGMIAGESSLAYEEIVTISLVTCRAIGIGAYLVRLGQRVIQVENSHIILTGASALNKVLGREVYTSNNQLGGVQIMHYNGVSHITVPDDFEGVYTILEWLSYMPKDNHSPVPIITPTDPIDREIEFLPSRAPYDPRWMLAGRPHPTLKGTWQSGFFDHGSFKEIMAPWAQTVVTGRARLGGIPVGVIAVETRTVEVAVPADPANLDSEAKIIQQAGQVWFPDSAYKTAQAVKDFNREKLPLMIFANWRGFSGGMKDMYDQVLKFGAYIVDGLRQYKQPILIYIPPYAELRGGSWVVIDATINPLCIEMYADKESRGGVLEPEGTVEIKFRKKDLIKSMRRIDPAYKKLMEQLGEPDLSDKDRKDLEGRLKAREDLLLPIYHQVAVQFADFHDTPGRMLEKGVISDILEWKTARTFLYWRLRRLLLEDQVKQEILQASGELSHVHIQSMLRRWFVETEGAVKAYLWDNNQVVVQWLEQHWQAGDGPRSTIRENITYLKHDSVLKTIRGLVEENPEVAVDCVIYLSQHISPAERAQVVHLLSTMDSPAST

Row | Compound | IC50
1 | CC(=O)N[C@@H](C)/C=C/c1ccc(Oc2ccc3sc(C)nc3c2)nc1 [Compound I-424] | 140 nM
2 | CCC(F)(F)c1ccc(Oc2ccc(/C=C/[C@H](C)NC(N)=O)cn2)c(Cl)c1 [Compound I-393] | 48 nM
3 | CC(=O)N[C@@H](C)/C=C/c1ccc(Oc2ccc(-c3nc4ccccc4o3)cc2Cl)nc1 [Compound I-414] | 36 nM
4 | CCCc1ccc(Oc2ccc(/C=C/[C@H](C)NC(C)=O)cn2)c(-c2ccccc2)c1 [Compound I-408] | 2300 nM

The remaining lines, values ahead:

Row | IC50 | Compound
5 | 970 nM | CCCc1ccc(Oc2ccc(/C=C/[C@H](C)NC(=O)CNC(C)=O)cn2)c(Cl)c1 [Compound I-392]
6 | 48 nM | CC(=O)N[C@@H](C)/C=C/c1ccc(Oc2ccc(-c3ncc(C(F)(F)F)cn3)cc2Cl)nc1 [Compound I-419]

Same assay, conditions: inhibition activity on human ACC2, Table 79; read-out: IC50

Row | Compound | IC50
7 | C[C@@H](/C=C/c1cnc(Oc2ccc(OCC3CC3)cc2Cl)s1)NC(=O)CCCN1CCCC1=O [Compound I-86] | 440 nM
8 | COc1cc(Cl)cc(Oc2ccc(/C=C/[C@H](C)NC(C)=O)cn2)c1 [Compound I-28] | 97 nM
9 | CCOc1ccc(Oc2ccc(/C=C/[C@H](C)NC(C)=O)cn2)cc1 [Compound I-16] | 31 nM

Now from value to molecule:

Row | IC50 | Compound
10 | 5900 nM | CC(=O)N[C@@H](C)/C=C/c1cnn(Cc2ccc(OCC3CC3)cc2)c1 [Compound I-64]
11 | 54 nM | CC(=O)N[C@@H](C)/C=C/c1cnc(Oc2ccc(OCC3CC3)cc2Cl)nc1 [Compound I-52]
12 | 430 nM | CC(=O)N[C@@H](C)/C=C/c1cnc(Oc2ccc(NCC3CC3)cc2Cl)nc1 [Compound I-54]
13 | 31 nM | CC(=O)N[C@@H](C)/C=C/c1cnc(Oc2cccc(OCC3CC3)c2Cl)s1 [Compound I-7]
14 | 9.1 nM | CCCOc1ccc(Oc2ccc(/C=C/[C@H](C)NC(C)=O)cn2)c(Cl)c1 [Compound I-38]
15 | 16 nM | CCCOc1ccc(Oc2ncc(/C=C/[C@H](C)NC(C)=O)s2)c(Cl)c1 [Compound I-2]
16 | 37 nM | CC(=O)N[C@@H](C)/C=C/c1ccc(Oc2ccc(OC(C)C)cc2Cl)nc1 [Compound I-37]
17 | 1100 nM | CCOc1ccc(OCc2ccc(/C=C/[C@H](C)NC(C)=O)cn2)c(Cl)c1 [Compound I-35]
18 | 150 nM | C[C@@H](/C=C/c1cnc(Oc2ccc(OCC3CC3)cc2Cl)s1)NC(=O)CC(N)=O [Compound I-116]
19 | 5.2 nM | CC(=O)N[C@@H](C)/C=C/c1ccc(Oc2ccc(OCC3CC3)c(Cl)c2)nc1 [Compound I-23]
20 | 1200 nM | CC(=O)N[C@@H](C)/C=C/c1cnn(Cc2ccc(OCC3CC3)cc2F)c1 [Compound I-67]

Same assay, conditions: inhibition activity on human ACC2, Table 80; read-out: IC50

Row | Compound | IC50
21 | CCOC(=O)c1cc(C(=O)N[C@@H](C)/C=C/c2cnc(Oc3ccc(OCC4CC4)cc3Cl)s2)ccn1 [Compound I-136] | 12 nM
22 | C[C@@H](/C=C/c1cnc(Oc2ccc(OCC3CC3)cc2Cl)s1)NC(=O)c1ccnc(C(=O)NCCN2CCOCC2)c1 [Compound I-208] | 4.9 nM
23 | COc1cccc(C(=O)N[C@@H](C)/C=C/c2cnc(Oc3ccc(OCC4CC4)cc3Cl)s2)c1 [Compound I-156] | 930 nM
24 | CCOC(=O)c1cc(C(=O)N[C@@H](C)/C=C/c2cnn(Cc3ccc(OCC4CC4)cc3Cl)c2)ccn1 [Compound I-173] | 59 nM
25 | C[C@@H](/C=C/c1cnc(Oc2ccc(OCC3CC3)cc2Cl)s1)NC(=O)[C@H]1CNC(=O)O1 [Compound I-133] | 920 nM
26 | CCOc1ccc(Oc2ccc(/C=C/[C@H](C)Nc3cc(C)no3)cn2)c(Cl)c1 [Compound I-204] | 38 nM
27 | C[C@@H](/C=C/c1cnc(Oc2ccc(OCC3CC3)cc2Cl)s1)NC(=O)c1ccnc(OCCN2CCCC2)c1 [Compound I-242] | 16 nM
28 | CCCOc1ccc(Oc2ncc(/C=C/[C@H](C)NC(=O)c3ccncc3F)s2)c(Cl)c1 [Compound I-164] | 850 nM

Continued, values first:

Row | IC50 | Compound
29 | 42 nM | CCOc1ccc(Oc2ccc(/C=C/[C@H](C)NC(=O)C(F)F)cn2)c(Cl)c1 [Compound I-179]
30 | 260 nM | COc1cc(C(=O)N[C@@H](C)/C=C/c2cnc(Oc3ccc(OCC4CC4)cc3Cl)s2)ccn1 [Compound I-157]
31 | 300 nM | C[C@@H](/C=C/c1cnc(Oc2ccc(OCC3CC3)cc2Cl)s1)NC(=O)NCCC(F)(F)F [Compound I-194]
32 | 220 nM | CC(=O)Nc1ncc(C(=O)N[C@@H](C)/C=C/c2cnc(Oc3ccc(OCC4CC4)cc3Cl)s2)s1 [Compound I-159]

Same assay, conditions: inhibition activity on human ACC2, Table 82; read-out: IC50

Row | Compound | IC50
33 | CC(=O)N[C@@H](C)/C=C/c1ccc(Oc2ccc(C3=CC(C)(C)OC(C)(C)C3)cc2Cl)nc1 [Compound I-354] | 170 nM
34 | CCOc1ccc(NCc2ccc(/C=C/[C@H](C)NC(C)=O)cn2)cc1 [Compound I-356] | 5400 nM
35 | CC(=O)N[C@@H](C)/C=C/c1ccc(Oc2ccc(-c3ccc(C#N)cc3)cc2Cl)nc1 [Compound I-345] | 52 nM

Results, then the molecule that gave them:

Row | IC50 | Compound
36 | 19 nM | CC(=O)N[C@@H](C)/C=C/c1ccc(Oc2ccc(C3=CCC4(CC3)CC4)cc2Cl)nc1 [Compound I-355]
37 | 47 nM | CCOc1ccc(Oc2ncc(/C=C/[C@H](C)NC(C)=O)cc2Cl)c(Cl)c1 [Compound I-334]
38 | 29 nM | CC(=O)N[C@@H](C)/C=C/c1ccc(Oc2ccc(CC(C)C)cc2Cl)nc1 [Compound I-363]
39 | 180 nM | CO/N=C(\C)c1ccc(Oc2ccc(/C=C/[C@H](C)NC(C)=O)cn2)c(Cl)c1 [Compound I-333]
40 | 92 nM | CC(=O)N[C@@H](C)/C=C/c1ccc(Oc2ccc(C(C)F)cc2Cl)nc1 (stereo partly shown) [Compound I-332]
41 | 18 nM | CC(=O)N[C@@H](C)/C=C/c1ccc(Oc2ccc(C3=CCCCC3)cc2Cl)nc1 [Compound I-350]
42 | 140 nM | CC(=O)N[C@@H](C)/C=C/c1ccc(Oc2ccc(S(=O)(=O)CC(C)C)cc2Cl)nc1 [Compound I-367]
43 | 280 nM | CCCc1ncc(Oc2ccc(/C=C/[C@H](C)NC(C)=O)cn2)cc1C [Compound I-370]
44 | 230 nM | CCC(O)c1ccc(Oc2ccc(/C=C/[C@H](C)NC(C)=O)cn2)c(Cl)c1 (stereo partly shown) [Compound I-359]

Same assay, conditions: inhibition activity on human ACC2, Table 84; read-out: IC50

Row | Compound | IC50
45 | CC(=O)N[C@@H](C)/C=C/c1ccc(Oc2ccc(Oc3ccccc3)cc2Cl)nc1 [Compound I-462] | 19 nM
46 | CC(=O)N[C@@H](C)/C=C/c1ccc(Oc2ccc3nc(C(C)C)oc3c2)nc1 [Compound I-500] | 8.9 nM
47 | CC(=O)N[C@@H](C)/C=C/c1ccc(Oc2ccc3c(c2)OCC3)nc1 [Compound I-448] | 180 nM
48 | CC(=O)N[C@@H](C)/C=C/c1ccc(Oc2ccc3nc(C)oc3c2)nc1 [Compound I-461] | 1500 nM
49 | CCCc1ccc(Oc2ccc(/C=C/[C@H](C)NC(C)=O)cn2)c(C)c1 [Compound I-437] | 33 nM
50 | CC(=O)N[C@@H](C)/C=C/c1ccc(Oc2ccc3c(c2)CCN(CC2CC2)C3=O)nc1 [Compound I-468] | 90 nM
51 | CC(=O)N[C@@H](C)/C=C/c1ccc(Oc2ccc(-c3ccc(F)cc3)cc2)nc1 [Compound I-514] | 96 nM
52 | CC(=O)N[C@@H](C)/C=C/c1ccc(Oc2ccc3sc(C)nc3c2Cl)nc1 [Compound I-501] | 31 nM
53 | CCCc1ccc(Oc2ccc(/C=C/[C@H](C)NC(C)=O)cn2)c(C(F)(F)F)c1 [Compound I-439] | 82 nM
54 | CCOc1ccc(Oc2ccc(/C=C/C(C)CNC(C)=O)cn2)c(Cl)c1 (stereo not shown) [I’-1] | 560 nM
55 | CCOc1ccc(OCc2cccc(/C=C/[C@H](C)NC(C)=O)n2)c(Cl)c1 [Compound I-505] | 45 nM
56 | CCOc1ccc(Oc2ccc(/C=C(\F)[C@H](C)NC(C)=O)cn2)c(Cl)c1 [Compound I-471] | 16 nM
57 | CSc1ncc(Oc2ccc(/C=C/[C@H](C)NC(C)=O)cn2)cn1 [Compound I-484] | 160 nM
58 | CC(=O)N[C@@H](C)/C=C/c1ccc(Oc2ccc(-c3ccc(C#N)cc3)cc2)nc1 [Compound I-515] | 860 nM

Now from value to molecule:

Row | IC50 | Compound
59 | 120 nM | CC(=O)N[C@@H](C)/C=C/c1ccc(Oc2ccc(Oc3cccnc3)cc2Cl)nc1 [Compound I-464]
60 | 88 nM | CC(=O)N[C@@H](C)/C=C/c1ccc(Oc2ccc3c(c2Cl)CCN(CC2CC2)C3=O)nc1 [Compound I-511]
61 | 130 nM | C/C=C/c1ccc(Oc2ccc(/C=C/[C@H](C)NC(C)=O)cn2)c(Cl)c1 [Compound I-460]
62 | 140 nM | CC(=O)N[C@@H](C)/C=C/c1ccc(Oc2ccc(CC(C)(C)C)cc2Cl)cn1 [Compound I-512]
63 | 73 nM | CCOc1ccc(Oc2ncc(/C=C/[C@H](C)NC(C)=O)cc2F)c(Cl)c1 [Compound I-446]
64 | 38 nM | CCc1nc2cc(Cl)c(Oc3ccc(/C=C/[C@H](C)NC(C)=O)cn3)cc2s1 [Compound I-487]
65 | 550 nM | CCOc1ccc(Oc2ccc(/C=C/[C@H](C)NC(C)=O)nc2)c(Cl)c1 [Compound I-489]

Same assay, conditions: inhibition activity on human ACC2, untitled table (Table 81); read-out: IC50

Row | Compound | IC50
66 | COc1ccc(F)c(Oc2ccc(/C=C/[C@H](C)NC(C)=O)cn2)c1 [Compound I-258] | 450 nM
67 | CCCc1ccc(Oc2ccc(/C=C/[C@H](C)NC(C)=O)cn2)cn1 [Compound I-269] | 120 nM
68 | CCNC(=O)c1cc(C(=O)N[C@@H](C)/C=C/c2cnn(Cc3c(C)cc(C)cc3C)c2)ccn1 [Compound I-315] | 3900 nM
69 | CCNC(=O)c1cc(C(=O)N[C@@H](C)/C=C/c2cnn(Cc3ccc(C(C)C)cc3)c2)ccn1 [Compound I-312] | 570 nM
70 | CCCc1ccc(Oc2ccc(/C=C/[C@H](C)NC(C)=O)cn2)cc1 [Compound I-306] | 24 nM

The next lines start with the values.

Row | IC50 | Compound
71 | 860 nM | CC(=O)N[C@@H](C)/C=C/c1cnc(Oc2ccc(NC(=O)CC(C)C)c(Cl)c2)nc1 [Compound I-284]
72 | 630 nM | CC(=O)N[C@@H](C)/C=C/c1ccc(Oc2ccc(OCCOC3CCCCO3)cc2Cl)nc1 (stereo partly shown) [Compound I-303]
73 | 28 nM | CC(=O)N[C@@H](C)/C=C/c1ccc(Oc2ccc(Br)c(Cl)c2)nc1 [Compound I-289]
74 | 110 nM | COCCOc1ccc(Oc2ccc(/C=C/[C@H](C)NC(C)=O)cn2)c(Cl)c1 [Compound I-296]
75 | 1300 nM | CC(=O)N[C@@H](C)/C=C/c1ccc(Oc2cncc(OCC3CC3)c2)nc1 [Compound I-293]
76 | 2800 nM | CC/C(=C\c1ccc(Oc2cnc(OCC3CC3)cc2Cl)nc1)C(C)NC(C)=O (stereo not shown) [Compound I-295]
